This note sets out measurements from patent publication US11224609B2, “Mithramycin derivatives having increased selectivity and anti-cancer activity” (University of Kentucky Research Foundation, priority 2017, dated 2022).

The subject of one data set is DU 145 cells. The data set can be described thus: 72 h GI50 assay in DU 145. The settings on record: read-out: DU 145 GI50; 72 h growth inhibition.
The test system of the next data set is HeLa cells. The experiment in a line: 72 h GI50 assay in HeLa. To be noted: read-out: HeLa GI50; 72 h growth inhibition.
In data set [1] the test system is prostate cell lines lacking TMPRSS2-ERG. The data set can be described thus: Median GI50 in prostate cell lines lacking TMPRSS2-ERG. To be noted: read-out: Median GI50 in prostate cell lines, lacking TMPRSS2-ERG; unit inferred.
Data set [2] concerns ES-8 Ewing sarcoma cells (EWS-FLI1 Type 2). The experiment in a line: 72 h GI50 assay in ES-8. The settings on record: read-out: ES-8 EWS-FLI1 Type 2 GI50; 72 h growth inhibition.
Data set [3] relates to ES-7 Ewing sarcoma cells (EWS-FLI1 Type 4). The experiment in a line: 72 h GI50 assay in ES-7. The settings on record: read-out: ES-7 EWS-FLI1 Type 4 GI50; 72 h growth inhibition.
The next data set concerns DMS 114 cells. The data set can be described thus: 72 h GI50 assay in DMS 114. The settings on record: read-out: DMS 114 GI50; 72 h growth inhibition.
For data set [4], the system named is A-673 Ewing sarcoma cells (EWS-FLI1 Type 1). The data set can be described thus: 72 h GI50 assay in A-673. The settings on record: read-out: A-673 EWS-FLI1 Type 1 GI50; 72 h growth inhibition.
The next data set relates to LNCaP cells. The data set can be described thus: 72 h GI50 assay in LNCaP. The settings on record: read-out: LNCaP GI50; 72 h growth inhibition.
For another data set, the system named is HCT 116 cells. The data set can be described thus: 72 h GI50 assay in HCT 116. The settings on record: read-out: HCT 116 GI50; 72 h growth inhibition.
The test system of data set [5] is VCaP prostate cancer cells (TMPRSS2-ERG). The data set can be described thus: 72 h GI50 assay in VCaP.
For data set [6], the system named is TC-32 (Ewing sarcoma, EWS-FLI1 Type 1) cell line.
Data set [7] has as its system 5838 Ewing sarcoma cells (EWS-ERG). The experiment in a line: 72 h GI50 assay in 5838.
The test system of a further data set is A549 cells. The experiment in a line: 72 h GI50 assay in A549. To be noted: read-out: A549 GI50; 72 h growth inhibition.
Data set [8] relates to Ewing sarcoma cell lines (TC-32, 5838, RD-ES, TC-71, A-673, ES-2, ES-7, ES-8). The data set can be described thus: Median GI50 in panel of Ewing sarcoma cell lines.
For data set [9], the system named is PC-3 (prostate cancer, no ETS translocation) cell line. The data set can be described thus: 72 h growth inhibition (GI50) assay in PC-3. To be noted: read-out: PC-3 Prostate cancer No ETS Translocation GI50; 72 h growth inhibition, PC-3 cells.
For data set [10], the system named is ES-2 Ewing sarcoma cells (EWS-FLI1 Type 3). The experiment in a line: 72 h GI50 assay in ES-2. To be noted: read-out: ES-2 EWS-FLI1 Type 3 GI50; 72 h growth inhibition.
Another data set deals with PANC-1 cells. The experiment in a line: 72 h GI50 assay in PANC-1. The settings on record: read-out: PANC-1 GI50; 72 h growth inhibition.
The subject of data set [11] is TC-71 Ewing sarcoma cells (EWS-FLI1 Type 1). To be noted: 72 h growth inhibition.
In data set [12] the test system is RD-ES Ewing sarcoma cells (EWS-FLI1 Type 2). The data set can be described thus: 72 h GI50 assay in RD-ES. To be noted: read-out: RD-ES EWS-FLI1 Type 2 GI50; 72 h growth inhibition.

The structures appear in SMILES notation. Where “and” joins values, the source holds several entries; their conditions need not be identical. Equal entries are not always repeated.

As to `COC(=O)C(Cc1c[nH]c2ccccc12)NC(=O)C(OC)C1Cc2cc3cc(OC4CC(OC5CC(O)C(O)C(C)O5)C(O)C(C)O4)c(C)c(O)c3c(O)c2C(=O)C1OC1CC(OC2CC(OC3CC(C)(O)C(O)C(C)O3)C(O)C(C)O2)C(O)C(C)O1` (stereo not drawn) [MTMSA-Trp (3), Mithramycin SA-Tryptophan, reference compound], the GI50 with DU 145 cells amounted to 46 nM; in the data set on HeLa cells, 323 nM; in data set [1] it was 76 nM; in data set [2] it was 99 nM; in data set [3], 32 nM; in the data set on DMS 114 cells it was 151 nM. The GI50 is 81 nM in [4]; 109 nM with LNCaP cells; 30 nM in the data set with HCT 116 cells; 60 nM in data set [5] (read-out: VCaP Prostate Cancer TMPRSS2-ERG GI50, 72 h growth inhibition, VCaP cells); 6 nM in [7] (read-out: 5838 Ewing Sarcoma EWS-ERG GI50, 72 h growth inhibition, 5838 cells); 89 nM in the data set with A549 cells. The GI50 turned out to be 47 nM in data set [8] (read-out: Median GI50 in Ewing sarcoma cell lines, median over 8 Ewing sarcoma cell lines, 72 h); 76 nM in data set [9]; 133 nM in data set [10]; 161 nM in the data set with PANC-1 cells; 47 nM in data set [12]. Further, in [5] (selectivity for VCaP over other prostate cancer cell lines), the “Ratio of median GI50 Prostate cells lacking TMPRSS2-ERG:VCaP” value worked out at 1.3. In data set [6] (72 h growth inhibition, TC-32 cells), the “TC-32 Ewing sarcoma EWS-FLI1 Type 1 GI50” value came to 16 nM. Besides, in data set [6] (selectivity, GI50 in PC-3 over GI50 in TC-32), the “GI50 ratio PC-3:TC-32” value is reported as 4.8. In addition, the “Ratio of median GI50 Non-Ewing sarcoma cell lines (cf Table 3):5838” value in data set [7] (selectivity for 5838 cells) worked out at 18.2. For the same compound, in data set [8] (median GI50 non-Ewing panel over Ewing panel), the “Ratio of Median GI50 non-Ewing sarcoma:Ewing sarcoma (Selectivity Index)” value is 2.3 and 1.5. Moreover, the “Selectivity Index ratio Analogues:MTM (1)” value in data set [8] (selectivity index relative to MTM (1)) turned out to be 1.5. Moreover, the “TC-71 EWS-FLI1 Type 1 GI50” value in data set [11] worked out at 57 nM.
